The values below are quoted from earlier work in patent publication US7820159B2, “MN/CA IX and EGFR pathway inhibition” (Instiute of Virology of the Slovak Academy of Sciences, priority 2006, dated 2010).

One data set relates to MEK. The conditions noted are these: non-ATP competitive allosteric inhibitors, unlike the majority of ATP-competitive analogs.
A further data set relates to tumor xenograft models. Particulars: in vivo.
Assay in data set [1]: not given
The source holds these as a separate data set.

For data set [2] the following is noted: patients.
In another data set the target is T1, MN (Homo sapiens, UniProt Q16790).
T1 construct: Phase I and II clinical trials of an MN-specific drug, Rencarex®; host or cells: endogenous MN/CA IX in human trial patients
The conditions noted are these: patients.

For the molecule `Cn1cnc2c(F)c(Nc3ccc(Br)cc3Cl)c(C(=O)NOCCO)cc21` [ARRY-142886], in the data set with MEK, the “Selectivity for MEK in biochemical assays” value is recorded as “high selectivity for MEK”. Moreover, the “Anti-tumor activity in tumor xenograft models” value in the data set with tumor xenograft models is given as “potent anti-tumor activity”.
Consider `O=C(NOC[C@H](O)CO)c1ccc(F)c(F)c1Nc1ccc(I)cc1F` [PD-0325901], for which the “Solubility compared with CI-1040” value is reported as “more soluble”. In data set [1], the “Metabolic stability compared with CI-1040” value is on record as “improved”. For the same molecule, the “Anti-tumor activity in tumor xenograft models” value in the data set on tumor xenograft models is on record as “potent anti-tumor activity”.
Consider “Rencarex®: an MN-specific drug tested in Phase I and II clinical trials”, for which the “Drug-related side effects in Phase I and II clinical trials” value in data set [2] is recorded as “no serious drug-related side effects”. In addition, the “Tolerability in Phase I and II clinical trials” value with MN was “well-tolerated”.
